Source: patent US9040545B2, “Heterocyclyl pyrazolopyrimidine analogues as selective JAK inhibitors” (Cellzome Limited, priority 2010, dated 2015)
pIC50: −log10 of the molar value.

What was measured:
JAK2 = target: T1, JAK2 (Homo sapiens, UniProt O60674); experiment: Kinobeads assay, JAK2; type: binding; details: mixed Molt4/Ramos lysate, read-out: Inhibition values (IC50) JAK2
T1 construct: endogenous in cells; host or cells: mixed Molt4/Ramos lysate (1:2)
Summary of the method: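 Competition binding in mixed Molt4/Ramos cell lysate (1:2, 10 mg/mL protein) with Kinobeads carrying immobilized aminopyrido-pyrimidine ligand, 3 h in cold room; 9-step 1:3 compound dilution series from 5 mM DMSO stock. Bead-bound JAK2/JAK3 eluted and quantified by antibody dot blot with infrared detection; IC50 from dose-response curves.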

Aurora B = target: T2, Aurora B (Homo sapiens, UniProt Q96GD4); experiment: Kinobeads assay, Aurora B; type: binding; details: for pIC50: lysate of pervanadate-treated Jurkat cells, read-out: Inhibition values (IC50) Aur B
T2 construct: cell lysates from Jurkat cells (ATCC TIB-152) used; endogenous in cells; host or cells: Jurkat cells (ATCC TIB-152), treated with pervanadate
T2 sequence (Q96GD4 whole entry): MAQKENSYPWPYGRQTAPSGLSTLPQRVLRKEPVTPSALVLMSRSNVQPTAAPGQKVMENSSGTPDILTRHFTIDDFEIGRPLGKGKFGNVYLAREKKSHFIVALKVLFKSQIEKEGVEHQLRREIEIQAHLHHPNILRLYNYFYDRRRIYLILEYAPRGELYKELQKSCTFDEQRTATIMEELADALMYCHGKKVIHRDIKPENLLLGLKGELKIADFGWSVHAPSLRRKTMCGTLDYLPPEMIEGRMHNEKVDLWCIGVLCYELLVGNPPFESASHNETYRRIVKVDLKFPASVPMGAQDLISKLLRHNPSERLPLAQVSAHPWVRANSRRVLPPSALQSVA

T1 sequence (O60674 whole entry): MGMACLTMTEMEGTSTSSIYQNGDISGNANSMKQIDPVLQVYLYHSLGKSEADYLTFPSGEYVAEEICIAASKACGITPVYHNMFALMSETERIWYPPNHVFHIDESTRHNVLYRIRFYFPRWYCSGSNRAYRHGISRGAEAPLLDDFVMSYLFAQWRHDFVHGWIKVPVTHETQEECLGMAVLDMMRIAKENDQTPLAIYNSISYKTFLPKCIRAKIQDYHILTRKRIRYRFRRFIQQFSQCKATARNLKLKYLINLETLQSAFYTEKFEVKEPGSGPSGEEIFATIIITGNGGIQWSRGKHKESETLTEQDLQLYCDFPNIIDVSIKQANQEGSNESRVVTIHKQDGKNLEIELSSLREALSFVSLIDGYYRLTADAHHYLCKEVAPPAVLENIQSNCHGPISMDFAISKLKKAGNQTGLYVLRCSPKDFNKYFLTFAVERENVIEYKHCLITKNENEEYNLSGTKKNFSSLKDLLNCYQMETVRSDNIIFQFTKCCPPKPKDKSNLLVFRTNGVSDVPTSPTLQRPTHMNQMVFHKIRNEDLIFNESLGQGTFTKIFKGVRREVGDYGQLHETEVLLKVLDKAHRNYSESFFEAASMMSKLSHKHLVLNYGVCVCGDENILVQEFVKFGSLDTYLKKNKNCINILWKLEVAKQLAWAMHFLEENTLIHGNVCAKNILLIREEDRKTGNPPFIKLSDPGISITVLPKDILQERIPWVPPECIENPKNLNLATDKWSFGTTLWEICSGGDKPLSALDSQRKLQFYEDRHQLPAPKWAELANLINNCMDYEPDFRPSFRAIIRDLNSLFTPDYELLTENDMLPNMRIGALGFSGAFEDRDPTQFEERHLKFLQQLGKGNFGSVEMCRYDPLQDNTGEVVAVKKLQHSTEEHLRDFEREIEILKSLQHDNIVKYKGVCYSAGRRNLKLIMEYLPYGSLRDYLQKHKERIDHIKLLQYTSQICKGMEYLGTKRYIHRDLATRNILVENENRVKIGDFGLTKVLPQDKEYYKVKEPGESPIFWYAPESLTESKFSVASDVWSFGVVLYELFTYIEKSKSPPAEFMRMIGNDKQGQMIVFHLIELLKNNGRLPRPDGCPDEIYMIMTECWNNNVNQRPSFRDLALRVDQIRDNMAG

Structure (SMILES) | pIC50 (JAK2) | JAK3/AurB Fold Selectivity (Aurora B) | pIC50 (Aurora B)
Cn1cc(Nc2ncc3cnn(Cc4c(F)ccc(N5CCOCC5=O)c4F)c3n2)cn1 [Example 69, 4-(2,4-Difluoro-3-((6-((1-methyl-1H-pyrazol-4-yl)amino)-1H-pyrazolo[3,4-d]pyrimidin-1-yl)methyl)phenyl)morpholin-3-one] | 5.00 to 6.00 | 10-50 Fold | 6.00 to 7.00
CN(C)CCCn1cc(Nc2ncc3cnn(Cc4c(F)c(F)cc(N5CCOCC5=O)c4F)c3n2)cn1 [Example 70, 4-(3-((6-((1-(3-(Dimethylamino)propyl)-1H-pyrazol-4-yl)amino)-1H-pyrazolo[3,4-d]pyrimidin-1-yl)methyl)-2,4,5-trifluorophenyl)morpholin-3-one] | 5.00 to 6.00 | 10-50 Fold | 6.00 to 7.00
Cn1cc(Nc2ncc3cnn(Cc4cc(N5CCNCC5=O)cc(F)c4F)c3n2)cn1 [Example 71, 1-(3,4-Difluoro-5-((6-((1-methyl-1H-pyrazol-4-yl)amino)-1H-pyrazolo[3,4-d]pyrimidin-1-yl)methyl)phenyl)piperazin-2-one] | ≤ 5.00 | 10-50 Fold | 6.00 to 7.00
O=C1CNCCN1c1cc(F)c(F)c(Cn2ncc3cnc(Nc4cnn(CCO)c4)nc32)c1 [Example 72, 1-(3,4-Difluoro-5-((6-((1-(2-hydroxyethyl)-1H-pyrazol-4-yl)amino)-1H-pyrazolo[3,4-d]pyrimidin-1-yl)methyl)phenyl)piperazin-2-one] | ≤ 5.00 | 10-50 Fold | 6.00 to 7.00
Cn1cc(Nc2ncc3cnn(Cc4cc(F)cc(N5CCOCC5=O)c4F)c3n2)cn1 [Example 73, 4-(2,5-Difluoro-3-((6-((1-methyl-1H-pyrazol-4-yl)amino)-1H-pyrazolo[3,4-d]pyrimidin-1-yl)methyl)phenyl)morpholin-3-one] | 6.00 to 7.00 | 10-50 Fold | 6.00 to 7.00
O=C1COCCN1c1cc(F)cc(Cn2ncc3cnc(Nc4cnn(CCO)c4)nc32)c1F [Example 74, 4-(2,5-Difluoro-3-((6-((1-(2-hydroxyethyl)-1H-pyrazol-4-yl)amino)-1H-pyrazolo[3,4-d]pyrimidin-1-yl)methyl)phenyl)morpholin-3-one] | 6.00 to 7.00 | 10-50 Fold | > 7.00
CN(C)CCCn1cc(Nc2ncc3cnn(Cc4c(F)ccc(N5CCOCC5=O)c4F)c3n2)cn1 [Example 75, 4-(3-((6-((1-(3-(Dimethylamino)propyl)-1H-pyrazol-4-yl)amino)-1H-pyrazolo[3,4-d]pyrimidin-1-yl)methyl)-2,4-difluorophenyl)morpholin-3-one] | 5.00 to 6.00 | 3-10 Fold | > 7.00
Cn1cc(Nc2ncc3cnn(Cc4c(F)ccc(N5CCNCC5=O)c4F)c3n2)cn1 [Example 76, 1-(2,4-Difluoro-3-((6-((1-methyl-1H-pyrazol-4-yl)amino)-1H-pyrazolo[3,4-d]pyrimidin-1-yl)methyl)phenyl)piperazin-2-one] | 5.00 to 6.00 | 3-10 Fold | 6.00 to 7.00
COC1CCN(c2cccc(Cn3ncc4cnc(Nc5cnn(C)c5)nc43)c2)CC1 [Example 77, 1-(3-(4-Methoxypiperidin-1-yl)benzyl)-N-(1-methyl-1H-pyrazol-4-yl)-1H-pyrazolo[3,4-d]pyrimidin-6-amine] | ≤ 5.00 | 3-10 Fold | 6.00 to 7.00
OCCn1cc(Nc2ncc3cnn(Cc4cc(N5CCNCC5)cc(F)c4F)c3n2)cn1 [Example 78, 2-(4-((1-(2,3-Difluoro-5-(piperazin-1-yl)benzyl)-1H-pyrazolo[3,4-d]pyrimidin-6-yl)amino)-1H-pyrazol-1-yl)ethanol] | 5.00 to 6.00 | 3-10 Fold | > 7.00
Cn1cc(Nc2ncc3cnn(Cc4cc(F)cc(C(=O)N5CCOCC5)c4)c3n2)cn1 [Example 79, (3-Fluoro-5-((6-((1-methyl-1H-pyrazol-4-yl)amino)-1H-pyrazolo[3,4-d]pyrimidin-1-yl)methyl)phenyl)(morpholino)methanone] | 6.00 to 7.00 | >50 Fold | 5.00 to 6.00
Cn1cc(Nc2ncc3cnn(Cc4cc(F)cc(C(=O)N5CCNCC5)c4)c3n2)cn1 [Example 80, (3-Fluoro-5-((6-((1-methyl-1H-pyrazol-4-yl)amino)-1H-pyrazolo[3,4-d]pyrimidin-1-yl)methyl)phenyl)(piperazin-1-yl)methanone] | 5.00 to 6.00 | 10-50 Fold | 6.00 to 7.00
Fc1cc(N2CCOCC2)c(F)c(Cn2ncc3cnc(Nc4cn[nH]c4)nc32)c1F [Example 81, N-(1H-Pyrazol-4-yl)-1-(2,3,6-trifluoro-5-morpholinobenzyl)-1H-pyrazolo[3,4-d]pyrimidin-6-amine] | 5.00 to 6.00 | 10-50 Fold | 6.00 to 7.00
OCCn1cc(Nc2ncc3cnn(Cc4c(F)ccc(N5CCOCC5)c4F)c3n2)cn1 [Example 82, 2-(4-((1-(2,6-Difluoro-3-morpholinobenzyl)-1H-pyrazolo[3,4-d]pyrimidin-6-yl)amino)-1H-pyrazol-1-yl)ethanol] | ≤ 5.00 | 3-10 Fold | > 7.00
OCCn1cc(Nc2ncc3cnn(Cc4cccc(N5CCNCC5)c4F)c3n2)cn1 [Example 83, 2-(4-((1-(2-Fluoro-3-(piperazin-1-yl)benzyl)-1H-pyrazolo[3,4-d]pyrimidin-6-yl)amino)-1H-pyrazol-1-yl)ethanol] | 5.00 to 6.00 | 3-10 Fold | > 7.00
O=C1COCCN1c1cc(F)cc(Cn2ncc3cnc(Nc4cn[nH]c4)nc32)c1 [Example 84, 4-(3-((6-((1H-Pyrazol-4-yl)amino)-1H-pyrazolo[3,4-d]pyrimidin-1-yl)methyl)-5-fluorophenyl)morpholin-3-one] | 6.00 to 7.00 | 10-50 Fold | 6.00 to 7.00
O=C(c1cccc(Cn2ncc3cnc(Nc4cnn(CCO)c4)nc32)c1F)N1CCOCC1 [Example 85, (2-Fluoro-3-((6-((1-(2-hydroxyethyl)-1H-pyrazol-4-yl)amino)-1H-pyrazolo[3,4-d]pyrimidin-1-yl)methyl)phenyl)(morpholino)methanone] | 5.00 to 6.00 | >50 Fold | 5.00 to 6.00
Cn1cc(Nc2ncc3cnn(Cc4cc(N5CCNCC5)cc(F)c4F)c3n2)cn1 [Example 86, 1-(2,3-Difluoro-5-(piperazin-1-yl)benzyl)-N-(1-methyl-1H-pyrazol-4-yl)-1H-pyrazolo[3,4-d]pyrimidin-6-amine] | 5.00 to 6.00 | 10-50 Fold | 6.00 to 7.00
Cn1cc(Nc2ncc3cnn(Cc4cccc(C(=O)N5CCOCC5)c4F)c3n2)cn1 [Example 87, (2-Fluoro-3-((6-((1-methyl-1H-pyrazol-4-yl)amino)-1H-pyrazolo[3,4-d]pyrimidin-1-yl)methyl)phenyl)(morpholino)methanone] | 5.00 to 6.00 | >50 Fold | 5.00 to 6.00
Cn1cc(Nc2ncc3cnn(Cc4cccc(N5CCOCC5O)c4)c3n2)cn1 (stereo not drawn) [Example 88, 4-(3-((6-((1-Methyl-1H-pyrazol-4-yl)amino)-1H-pyrazolo[3,4-d]pyrimidin-1-yl)methyl)phenyl)morpholin-3-ol] | ≤ 5.00 | >50 Fold | 5.00 to 6.00
